Experiments:
[1] = 100 kPa, Liquid
[2] = refractive index (Na D-line) (dimensionless); settings: 298.15 K; 101.33 kPa; Liquid; Standard Abbe refractometry
[3] = xn = mol fraction of the nth substance listed; settings: 100 kPa, Liquid
[4] = refractive index (Na D-line) (dimensionless); xn = mol fraction of the nth substance listed; settings: 298.15 K, 100 kPa, Liquid, Standard Abbe refractometry

COS(=O)(=O)[O-].Cn1cc[n+](C)c1 [1,3-dimethylimidazolium methylsulfate]
[1]
Settings | mass density [kg/m3] | viscosity [mPa·s]
298.15 K | 1329.12 | 77.7
313.15 K | 1318.56 | 41.68
328.15 K | 1308.13 | 25.21

Settings | refractive index
[2] | 1.48296

COS(=O)(=O)[O-].Cn1cc[n+](C)c1 [1,3-dimethylimidazolium methylsulfate] + CCO
[3]
Settings | mass density, 298.15 K [kg/m3] | mass density, 313.15 K [kg/m3] | mass density, 328.15 K [kg/m3] | viscosity, 298.15 K [mPa·s] | viscosity, 313.15 K [mPa·s] | viscosity, 328.15 K [mPa·s]
x2 = 0 | 1329.12 | 1318.56 | 1308.13 | 77.7 | 41.68 | 25.21
x2 = 0.0669 | 1316.47 | 1305.89 | 1295.53 | 62.1 | 34.42 | 21.43
x2 = 0.1228 | 1305.19 | 1294.59 | 1284.2 | 51.6 | 29.38 | 18.72
x2 = 0.2212 | 1282.46 | 1271.77 | 1261.38 | 36.97 | 22.8 | 15.07
x2 = 0.2944 | 1263.18 | 1252.46 | 1241.97 | 29.56 | 17.97 | 12.28
x2 = 0.3984 | 1231.22 | 1220.4 | 1209.57 | 20.26 | 12.87 | 9.141
x2 = 0.5 | 1192.8 | 1181.88 | 1171.12 | 12.83 | 8.823 | 6.461
x2 = 0.5926 | 1150.85 | 1139.74 | 1128.74 | 8.784 | 6.258 | 4.727
x2 = 0.6921 | 1094.3 | 1082.98 | 1071.75 | 5.706 | 4.309 | 3.246
x2 = 0.797 | 1018.1 | 1006.41 | 994.72 | 3.513 | 2.649 | 2.077
x2 = 0.8957 | 923.16 | 910.98 | 898.7 | 2.096 | 1.603 | 1.265
x2 = 0.945 | 864.26 | 851.76 | 839.06 | 1.602 | 1.225 | 0.961

[4]
Settings | refractive index
x2 = 0 | 1.48296
x2 = 0.0669 | 1.48028
x2 = 0.1228 | 1.47773
x2 = 0.2212 | 1.47336
x2 = 0.2944 | 1.46936
x2 = 0.3984 | 1.46252
x2 = 0.5 | 1.45421
x2 = 0.5926 | 1.44554
x2 = 0.6921 | 1.43248
x2 = 0.797 | 1.41494
x2 = 0.8957 | 1.39329
x2 = 0.945 | 1.37874

COS(=O)(=O)[O-].Cn1cc[n+](C)c1 [1,3-dimethylimidazolium methylsulfate] + O
[3]
Settings | mass density, 298.15 K [kg/m3] | mass density, 313.15 K [kg/m3] | mass density, 328.15 K [kg/m3] | viscosity, 298.15 K [mPa·s] | viscosity, 313.15 K [mPa·s] | viscosity, 328.15 K [mPa·s]
x2 = 0 | 1329.12 | 1318.56 | 1308.13 | 77.7 | 41.68 | 25.21
x2 = 0.0497 | 1326.99 | 1316.44 | 1306.09 | 68.1 | 37.51 | 23.95
x2 = 0.1475 | 1322.81 | 1312.31 | 1301.96 | 53.6 | 30.44 | 19.85
x2 = 0.2128 | 1319.54 | 1309.03 | 1298.64 | 44.93 | 25.86 | 17.11
x2 = 0.3086 | 1313.75 | 1303.27 | 1292.81 | 35.23 | 20.76 | 13.79
x2 = 0.3869 | 1307.71 | 1297.25 | 1286.89 | 27.57 | 16.93 | 10.5
x2 = 0.4947 | 1296.97 | 1286.56 | 1276.22 | 19.55 | 12.41 | 8.521
x2 = 0.5959 | 1282.77 | 1272.39 | 1262.04 | 13.88 | 9.041 | 6.336
x2 = 0.6947 | 1262.17 | 1251.91 | 1240.95 | 9.599 | 6.368 | 4.518
x2 = 0.7966 | 1226.82 | 1216.82 | 1206.64 | 5.928 | 4.027 | 2.917
x2 = 0.8962 | 1162.06 | 1152.98 | 1143.43 | 2.925 | 2.069 | 1.548
x2 = 0.9485 | 1100.41 | 1092.64 | 1084.03 | 1.745 | 1.261 | 0.99

[4]
Settings | refractive index
x2 = 0 | 1.48296
x2 = 0.0497 | 1.48187
x2 = 0.1475 | 1.47986
x2 = 0.2128 | 1.47824
x2 = 0.3086 | 1.47536
x2 = 0.3869 | 1.47252
x2 = 0.4947 | 1.46739
x2 = 0.5959 | 1.46071
x2 = 0.6947 | 1.45105
x2 = 0.7966 | 1.43485
x2 = 0.8962 | 1.40572
x2 = 0.9485 | 1.37848

CCO [ethanol]
[1]
Settings | mass density [kg/m3] | viscosity [mPa·s]
298.15 K | 785.46 | 1.082
313.15 K | 772 | 0.827
328.15 K | 758.55 | 0.641

Settings | refractive index
[2] | 1.36023

CCO [ethanol] + COS(=O)(=O)[O-].Cn1cc[n+](C)c1
[3], x1 = 1
Settings | mass density [kg/m3] | viscosity [mPa·s]
298.15 K | 785.46 | 1.082
313.15 K | 772 | 0.827
328.15 K | 758.55 | 0.641

Settings | refractive index
[4], x1 = 1 | 1.36023

From the NIST ThermoML archive (doi:10.1016/j.jct.2008.04.006)
